Assay in all cases: biochemical
Holding throughout (type): binding

Experiment [1] concerns the target T1, DRB1*0101 (Homo sapiens, UniProt P01903+P01911, A100R/D57E/F55L/F60I/F76Y/I96L/L162R/M171V/P40L/Q125E/R42F/V115G/Y59C).
T1 construct: made in house; host or cells: EBV-transformed homozygous human B cell lines, transfected fibroblasts or single-allele 721.221 transfectants
The note with it: IC50 nM to purified HLA DRB1*0101.

Experiment [2] deals with T2, DRB1*0401 (Homo sapiens, UniProt P01903+P01911, A100K/A169T/F76Y/I96L/K127E/L162R/M171V/N62H/P40V/Q125Y/R42H/S133A/S149N/S66Y/V115G/V209L/W38E).
T2 construct: made in house; host or cells: EBV-transformed homozygous human B cell lines, transfected fibroblasts or single-allele 721.221 transfectants
The note with it: read-out: IC50 nM to purified HLA DRB1*0401.

Experiment [3] concerns the target DRB1*1302 (Homo sapiens, UniProt P01903+P01911, A100E/A169T/K41T/L162R/M171V/P40S/Q125H/Q178H/Q39Y/Q99D/R42S/S66N/T262R/V115G/W38E/Y61H). The conditions noted are these: read-out: IC50 nM to purified HLA DRB1*1302.
The target in experiment [4] is T3, DRB1*1501 (Homo sapiens, UniProt P01903+P01911).
T3 construct: made in house; host or cells: EBV-transformed homozygous human B cell lines, transfected fibroblasts or single-allele 721.221 transfectants
The conditions noted are these: read-out: IC50 nM to purified HLA DRB1*1501.

Each structure is given as a SMILES string.

The source of these data is patent publication US9511134B2, “Inducing immune responses to influenza virus using polypeptide and nucleic acid compositions” (priority 2006, dated 2016).

Sequence of DRB1*1302 (P01903 26-254 limits assumed, other chains not shown): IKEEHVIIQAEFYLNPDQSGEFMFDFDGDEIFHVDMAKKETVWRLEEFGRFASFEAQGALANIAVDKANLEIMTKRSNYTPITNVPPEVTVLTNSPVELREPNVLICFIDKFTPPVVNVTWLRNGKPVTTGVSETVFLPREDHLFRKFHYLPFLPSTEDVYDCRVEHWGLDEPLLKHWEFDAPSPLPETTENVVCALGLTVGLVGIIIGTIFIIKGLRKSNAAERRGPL

By IC50 is commonly meant the concentration that gives 50% inhibition. Take `CC[C@H](C)[C@H](NC(=O)[C@H](Cc1ccc(O)cc1)NC(=O)[C@@H](NC(=O)[C@@H](NC(=O)[C@@H]1CCCN1)[C@@H](C)O)[C@@H](C)O)C(=O)N[C@@H](CO)C(=O)N[C@H](C(=O)NCC(=O)N[C@H](C(=O)N[C@@H](CO)C(=O)N[C@H](C(=O)N[C@@H](CC(C)C)C(=O)N[C@@H](CC(N)=O)C(=O)N[C@@H](CCC(N)=O)C(=O)N[C@@H](CCCNC(=N)N)C(=O)N[C@@H](CC(C)C)C(=O)O)[C@@H](C)O)[C@@H](C)O)C(C)C` [Flu.HA.210]: the IC50 in experiment [1] amounted to 190 nM; in experiment [2] it was 59 nM; in experiment [3], 957 nM.
In turn, `CC[C@H](C)[C@H](NC(=O)[C@H](C)NC(=O)[C@H](CC(=O)O)NC(=O)[C@H](CC(N)=O)NC(=O)[C@@H]1CCCN1C(=O)[C@H](CCCCN)NC(=O)[C@H](CC(C)C)NC(=O)[C@@H](NC(=O)[C@@H](NC(=O)[C@H](Cc1c[nH]c2ccccc12)NC(=O)[C@H](Cc1ccccc1)NC(=O)[C@H](Cc1ccccc1)NC(=O)[C@H](CCC(=O)O)NC(=O)[C@H](CCSC)NC(=O)[C@@H](N)CCCNC(=N)N)[C@@H](C)O)[C@@H](C)CC)C(=O)O` [Flu.HA.241] registered an IC50 in experiment [1] of 62 nM.
Turning to `CC[C@H](C)[C@H](NC(=O)[C@H](C)NC(=O)[C@H](CC(=O)O)NC(=O)[C@H](CC(N)=O)NC(=O)[C@@H]1CCCN1C(=O)[C@H](CCCCN)NC(=O)[C@H](CC(C)C)NC(=O)[C@@H](NC(=O)[C@@H](NC(=O)[C@@H](N)Cc1c[nH]c2ccccc12)[C@@H](C)O)[C@@H](C)CC)C(=O)N[C@@H](CC(N)=O)C(=O)N[C@@H](Cc1ccccc1)C(=O)N[C@@H](CCC(=O)O)C(=O)N[C@@H](CO)C(=O)N[C@@H](CC(N)=O)C(=O)O` [Flu.HA.246], the IC50 in experiment [3] is 31 nM.
In the case of `CC(C)C[C@H](NC(=O)CNC(=O)[C@@H](NC(=O)[C@H](C)NC(=O)[C@H](CC(C)C)NC(=O)[C@@H](NC(=O)[C@H](CC(C)C)NC(=O)[C@H](CCCNC(=N)N)NC(=O)[C@@H](N)CC(N)=O)C(C)C)[C@@H](C)O)C(=O)N[C@@H](CCCNC(=N)N)C(=O)N[C@@H](CC(N)=O)C(=O)N[C@@H](CO)C(=O)N1CCC[C@H]1C(=O)N[C@@H](CCC(N)=O)C(=O)N[C@@H](CCCNC(=N)N)C(=O)O` [Flu.HA.325], in experiment [1], the IC50 was determined as 69 nM.
For the molecule `CC(C)C[C@H](NC(=O)[C@H](CCCCN)NC(=O)[C@@H](NC(=O)[C@H](CO)NC(=O)[C@H](C)NC(=O)[C@@H](NC(=O)[C@H](C)NC(=O)[C@H](CCCCN)NC(=O)[C@H](CCC(=O)O)NC(=O)[C@@H](NC(=O)[C@H](CC(C)C)NC(=O)[C@H](Cc1ccccc1)NC(=O)[C@H](CC(N)=O)NC(=O)[C@@H](NC(=O)[C@@H](N)CC(N)=O)[C@@H](C)O)[C@@H](C)O)C(C)C)C(C)C)C(=O)N[C@@H](C)C(=O)O` [Flu.NA.51], in experiment [4], the IC50 came out at 47 nM.
In experiment [1], `CC[C@H](C)[C@H](NC(=O)[C@H](CCCCN)NC(=O)[C@@H](N)Cc1c[nH]cn1)C(=O)N[C@@H](Cc1ccccc1)C(=O)N[C@@H](CCCCN)C(=O)N[C@@H](CCSC)C(=O)N[C@@H](CCC(=O)O)C(=O)N[C@@H](CCCCN)C(=O)NCC(=O)N[C@@H](CCCCN)C(=O)N[C@H](C(=O)N[C@H](C(=O)N[C@@H](CCCCN)C(=O)N[C@@H](CO)C(=O)N[C@H](C(=O)N[C@@H](CCC(=O)O)C(=O)N[C@@H](CC(C)C)C(=O)O)C(C)C)C(C)C)C(C)C` [Flu.NA.233] displayed an IC50 of 64 nM.
On to `CC[C@H](C)[C@H](NC(=O)[C@@H](NC(=O)[C@H](CCSC)NC(=O)[C@H](CC(=O)O)NC(=O)[C@@H](NC(=O)[C@H](CC(C)C)NC(=O)[C@H](Cc1ccc(O)cc1)NC(=O)[C@H](CCCNC(=N)N)NC(=O)[C@H](CO)NC(=O)[C@H](C)N)[C@@H](C)O)[C@@H](C)O)C(=O)N[C@@H](CCC(=O)O)C(=O)N[C@@H](CCC(=O)O)C(=O)N[C@@H](CCSC)C(=O)N[C@@H](CO)C(=O)N[C@@H](CCCNC(=N)N)C(=O)O` [Flu.NS1.89], for which the IC50 in experiment [1] worked out at 6030 nM; in experiment [2] it was 67 nM.
Consider `CC[C@H](C)[C@H](NC(=O)[C@H](CC(C)C)NC(=O)[C@@H](NC(=O)[C@H](CCC(=O)O)NC(=O)[C@H](CC(C)C)NC(=O)[C@H](CCCNC(=N)N)NC(=O)[C@H](CC(=O)O)NC(=O)[C@H](Cc1ccccc1)NC(=O)[C@@H](NC(=O)[C@@H](NC(=O)[C@H](CO)NC(=O)[C@H](Cc1ccccc1)NC(=O)[C@@H](N)CC(N)=O)C(C)C)[C@@H](C)CC)[C@@H](C)O)C(=O)N[C@@H](CC(C)C)C(=O)N[C@@H](CC(C)C)C(=O)O` [Flu.NS1.136], for which the IC50 in experiment [1] came out at 17 nM; in experiment [4], 6930 nM.
Consider `CC[C@H](C)[C@H](NC(=O)[C@H](CCC(=O)O)NC(=O)[C@H](CCC(N)=O)NC(=O)[C@H](CCC(=O)O)NC(=O)[C@@H](NC(=O)[C@H](CCC(=O)O)NC(=O)[C@H](Cc1ccccc1)NC(=O)[C@@H](N)CC(C)C)C(C)C)C(=O)N[C@@H](CCCNC(=N)N)C(=O)N[C@H](C(=O)N[C@@H](Cc1ccccc1)C(=O)N[C@@H](CO)C(=O)N[C@@H](Cc1ccccc1)C(=O)N[C@@H](CCC(N)=O)C(=O)N[C@@H](CC(C)C)C(=O)O)[C@@H](C)O` [Flu.NS2.182], for which the IC50 in experiment [2] was 8800 nM.
Regarding `CC(C)C[C@H](NC(=O)[C@H](Cc1c[nH]cn1)NC(=O)[C@H](CO)NC(=O)[C@@H](N)CCCNC(=N)N)C(=O)N[C@@H](CCCNC(=N)N)C(=O)N[C@@H](CC(N)=O)C(=O)N[C@@H](CC(=O)O)C(=O)N[C@H](C(=O)N[C@@H](CC(=O)O)C(=O)N[C@H](C(=O)N[C@H](C(=O)N[C@@H](CC(N)=O)C(=O)N[C@@H](Cc1ccccc1)C(=O)N[C@H](C(=O)N[C@@H](CO)C(=O)O)C(C)C)C(C)C)C(C)C)[C@@H](C)O` [Flu.PA.511], the IC50 in experiment [2] was determined as 200 nM.
Take `CC[C@H](C)[C@H](NC(=O)[C@@H](NC(=O)[C@H](CCC(=O)O)NC(=O)[C@H](CCSC)NC(=O)[C@@H](N)[C@@H](C)O)C(C)C)C(=O)N[C@@H](CCC(N)=O)C(=O)N[C@@H](CCC(N)=O)C(=O)N[C@H](C(=O)N[C@@H](CCCNC(=N)N)C(=O)N[C@H](C(=O)N[C@@H](CC(=O)O)C(=O)N[C@@H](CCCCN)C(=O)N[C@@H](CC(C)C)C(=O)N[C@H](C(=O)N[C@@H](CCC(N)=O)C(=O)O)[C@@H](C)O)C(C)C)[C@@H](C)O` [Flu.PB1.113]: the IC50 in experiment [3] is 180 nM.
Turning to `CC[C@H](C)[C@H](NC(=O)[C@H](CCC(=O)O)NC(=O)[C@H](CCSC)NC(=O)[C@H](CCC(=O)O)NC(=O)[C@H](CCC(=O)O)NC(=O)[C@@H](N)CCCCN)C(=O)N[C@H](C(=O)N[C@H](C(=O)N[C@@H](Cc1c[nH]cn1)C(=O)N[C@@H](Cc1ccccc1)C(=O)N[C@@H](CCC(N)=O)C(=O)N[C@@H](CCCNC(=N)N)C(=O)N[C@@H](CCCCN)C(=O)N[C@@H](CCCNC(=N)N)C(=O)N[C@@H](CCCNC(=N)N)C(=O)O)[C@@H](C)O)[C@@H](C)O` [Flu.PB1.179], the IC50 in experiment [1] amounted to 1400 nM.
With `CSCC[C@H](NC(=O)[C@H](CO)NC(=O)[C@H](Cc1ccccc1)NC(=O)[C@H](CC(N)=O)NC(=O)[C@H](C)NC(=O)[C@@H](N)C(C)C)C(=O)N[C@@H](CCC(=O)O)C(=O)N[C@@H](CC(C)C)C(=O)N1CCC[C@H]1C(=O)N[C@@H](CO)C(=O)N[C@@H](Cc1ccccc1)C(=O)NCC(=O)N[C@H](C(=O)N[C@@H](CO)C(=O)NCC(=O)O)C(C)C` [Flu.PB1.505], the IC50 in experiment [1] was determined as 20 nM; in experiment [2], 17 nM.
As for `CSCC[C@H](NC(=O)[C@H](CC(C)C)NC(=O)[C@H](CCC(=O)O)NC(=O)[C@@H](N)Cc1c[nH]c2ccccc12)C(=O)N[C@@H](CC(=O)O)C(=O)N[C@@H](CCC(=O)O)C(=O)N[C@@H](CC(=O)O)C(=O)N[C@@H](Cc1ccc(O)cc1)C(=O)N[C@@H](CCC(N)=O)C(=O)NCC(=O)N[C@@H](CCCNC(=N)N)C(=O)N[C@@H](CC(C)C)C(=O)N[C@@H](CS)C(=O)N[C@@H](CC(N)=O)C(=O)N1CCC[C@H]1C(=O)O` [Flu.PB1.616], in experiment [2], the IC50 was 480 nM.
On to `CC[C@H](C)[C@H](NC(=O)CNC(=O)[C@H](CCCNC(=N)N)NC(=O)[C@H](CCC(N)=O)NC(=O)[C@H](CO)NC(=O)[C@@H](NC(=O)[C@H](CC(N)=O)NC(=O)[C@H](CC(C)C)NC(=O)[C@@H](NC(=O)[C@H](CO)NC(=O)[C@@H](N)CCCNC(=N)N)[C@@H](C)CC)[C@@H](C)O)C(=O)N[C@@H](CC(C)C)C(=O)N[C@@H](CCC(=O)O)C(=O)N[C@@H](CC(=O)O)C(=O)N[C@@H](CCC(=O)O)C(=O)O` [Flu.PB1.675], for which the IC50 in experiment [1] came out at 94 nM; in experiment [3] it was 71 nM.
`CC[C@H](C)[C@H](NC(=O)[C@@H](NC(=O)[C@@H](N)CC(=O)O)C(C)C)C(=O)N[C@@H](CCSC)C(=O)N[C@@H](CCC(=O)O)C(=O)N[C@H](C(=O)N[C@H](C(=O)N[C@@H](Cc1ccccc1)C(=O)N1CCC[C@H]1C(=O)N[C@@H](CC(N)=O)C(=O)N[C@@H](CCC(=O)O)C(=O)N[C@H](C(=O)NCC(=O)N[C@@H](C)C(=O)N[C@@H](CCCNC(=N)N)C(=O)O)C(C)C)C(C)C)C(C)C` [Flu.PB2.164]: the IC50 in experiment [2] amounted to 1100 nM.
Consider `CC[C@H](C)[C@H](NC(=O)CNC(=O)[C@@H](NC(=O)[C@@H](N)CCSC)[C@@H](C)CC)C(=O)N[C@@H](CC(C)C)C(=O)N1CCC[C@H]1C(=O)N[C@@H](CC(=O)O)C(=O)N[C@@H](CCSC)C(=O)N[C@H](C(=O)N1CCC[C@H]1C(=O)N[C@@H](CO)C(=O)N[C@H](C(=O)N[C@@H](CCC(=O)O)C(=O)N[C@@H](CCSC)C(=O)N[C@@H](CO)C(=O)O)[C@@H](C)O)[C@@H](C)O` [Flu.PB2.463], for which, in experiment [2], the IC50 is 31 nM.
